Data: publication PMC8851638 (ACS Omega, 2022)
In brackets after ≈: the same amount, converted by molar mass. Several values for one entry are separate records, joined by “and”; a condition that tells them apart may be missing. Identical values can stand only once.

Columns and labels:
[1] = test system: RBCs; test: Hemolytic assay; format: cell-based; conditions: human RBCs; compounds 1.0 mg/mL; Triton X-100 0.1% v/v; 37 °C, 35 min
[2] = test system: S. epidermidis biofilm; test: Staphylococcus biofilm mass reduction; format: cell-based; conditions: at their MIC
[3] = test system: S. aureus biofilm; test: Staphylococcus biofilm mass reduction; format: cell-based; conditions: at their MIC
[4] = test system: S. aureus (MDR00231); test: MIC and MBC by broth microdilution; format: cell-based, Staphylococcus aureus; conditions: Staphylococcus aureus, read-out: MIC (mean ± SEM), S. aureus; broth microdilution
[5] = test system: B. subtilis (MDR00423); test: MIC and MBC by broth microdilution; format: cell-based; conditions: Bacillus subtilis, read-out: MIC (mean ± SEM), B. subtilis; broth microdilution
[6] = test system: S. epidermidis (MDR00223); test: MIC and MBC by broth microdilution; format: cell-based, Staphylococcus epidermidis; conditions: Staphylococcus epidermidis, read-out: MIC (mean ± SEM), S. epidermidis; broth microdilution
[7] = test system: E. coli (MDR00501); test: MIC and MBC by broth microdilution; format: cell-based; conditions: Escherichia coli, read-out: MIC (mean ± SEM), E. coli; broth microdilution
[8] = test system: C. albicans200 (MDR00200); test: Agar well-diffusion antimicrobial sensitivity assay; format: cell-based, Candida albicans; conditions: Candida albicans, read-out: Inhibition Zone (IZ)
[9] = test system: S. aureus (MDR00231); test: as above; format: cell-based, Staphylococcus aureus; conditions: Staphylococcus aureus, read-out: Inhibition Zone (IZ)
[10] = test system: E. coli (MDR00501); test: as above; format: cell-based; conditions: Escherichia coli, read-out: Inhibition Zone (IZ)
[11] = test system: S. epidermidis (MDR00223); test: as above; format: cell-based, Staphylococcus epidermidis; conditions: Staphylococcus epidermidis, read-out: Inhibition Zone (IZ)
[12] = test system: C. albicans100 (MDR00100); test: as above; format: cell-based, Candida albicans; conditions: Candida albicans, read-out: Inhibition Zone (IZ)

Row | MIC [4] [µg/mL] | MIC [5] [µg/mL] | MIC [6] [µg/mL] | MIC [7] [µg/mL] | Compound | %lysis of RBCs [1] | reduction of biofilm formation [2] [%] | reduction of biofilm formation [3] [%] | zone of inhibition at 100000 µg/mL [8] [mm] | zone of inhibition at 100000 µg/mL [9] [mm] | zone of inhibition at 100000 µg/mL [10] [mm] | zone of inhibition at 100000 µg/mL [11] [mm] | zone of inhibition at 100000 µg/mL [12] [mm]
1 | 0.48 ± 0.1 (≈ 1.45 µM) | 0.48 ± 0.3 (≈ 1.45 µM) | 0.47 ± 0.2 (≈ 1.42 µM) | 0.46 ± 0.4 (≈ 1.39 µM) | O=C(O)c1cn(C2CC2)c2cc(N3CCNCC3)c(F)cc2c1=O [CIP, Ciprofloxacin, reference compound] | 16.2% and 16.2 ± 0.5% | 38 | 43.2 | – | – | – | – | –
2 | – | – | – | – | Cc1ccc(-c2nn(-c3ccccc3)cc2C=c2sc(=CC#N)[nH]c2=O)cc1 [Compound 3b, 2-(4-Oxo-5-((1-phenyl-3-(p-tolyl)-1H-pyrazol-4-yl)methylene)thiazolidin-2-ylidene)acetonitrile] | – | – | – | 15 ± 0.8 | 15 ± 0.63 | 16 ± 0.34 | 17 ± 0.21 | 13 ± 0.22
3 | – | – | – | – | CCOC(=O)C=c1[nH]c(=O)c(=Cc2cn(-c3ccccc3)nc2-c2ccccc2)s1 [Compound 3c, Ethyl 2-(5-((1,3-Diphenyl-1H-pyrazol-4-yl)methylene)-4-oxothiazolidin-2-ylidene)acetate] | – | – | – | 14 ± 0.3 | 13 ± 0.46 | 18 ± 0.33 | 15 ± 0.7 | 15 ± 0.45
4 | – | – | – | – | CCOC(=O)C=c1[nH]c(=O)c(=Cc2cn(-c3ccccc3)nc2-c2ccc(C)cc2)s1 [Compound 3d, Ethyl-2-(4-oxo-5-((1-phenyl-3-(p-tolyl)-1H-pyrazol-4-yl)methylene)thiazolidin-2-ylidene)-acetate] | – | – | – | 16 ± 0.22 | 15 ± 0.78 | 15 ± 0.67 | 16 ± 0.1 | 13 ± 0.6
5 | – | – | – | – | Cc1ccc(-c2nn(-c3ccccc3)cc2C=C(C#N)C2=NC(=O)CS2)cc1 [Compound 4b, 2-(4-Oxo-4,5-dihydrothiazol-2-yl)-3-(1-phenyl-3-(p-tolyl)-1H-pyrazol-4-yl)acrylonitrile] | – | – | – | 23 ± 0.22 | 20 ± 0.2 | 22 ± 0.6 | 19 ± 0.31 | 22 ± 0.1
6 | – | – | – | – | N#CC(=Cc1ccc(Cl)cc1)C1=NC(=O)C(=Cc2cn(-c3ccccc3)nc2-c2ccccc2)S1 [Compound 5b, 3-(4-Chlorophenyl)-2-(5-((1,3-diphenyl-1H-pyrazol-4-yl)methylene)-4-oxo-4,5-dihydrothiazol-2-yl)acrylonitrile] | – | – | – | 25 ± 0.77 | 24 ± 0.2 | 22 ± 0.56 | 21 ± 0.1 | 23 ± 0.26
7 | – | – | – | – | N#CC(=Cc1ccc([N+](=O)[O-])cc1)C1=NC(=O)C(=Cc2cn(-c3ccccc3)nc2-c2ccccc2)S1 [Compound 5c, 2-(5-((1,3-Diphenyl-1H-pyrazol-4-yl)methylene)-4-oxo-4,5-dihydrothiazol-2-yl)-3-(4-nitrophenyl)acrylonitrile] | – | – | – | 24 ± 0.13 | 22 ± 0.66 | 21 ± 0.45 | 24 ± 0.28 | 21 ± 0.52
8 | – | – | – | – | CCOC(=O)c1c(N)csc1-c1cn(-c2ccccc2)nc1-c1ccccc1 [Compound 7a, Ethyl 4-Amino-2-(1,3-diphenyl-1H-pyrazol-4-yl)thiophene-3-carboxylate] | – | – | – | 25 ± 0.33 | 24 ± 0.4 | 22 ± 0.41 | 21 ± 0.12 | 21 ± 0.32
9 | – | – | – | – | Cc1c(NN=C2SC(CC#N)=NC2=O)c(=O)n(-c2ccccc2)n1C [Compound 14, 2-(5-(2-(1,5-Dimethyl-3-oxo-2-phenyl-2,3-dihydro-1H-pyrazol-4-yl)hydrazono)-4-oxo-4,5-dihydrothiazol-2-yl)acetonitrile] | – | – | – | 20 ± 0.88 | 16 ± 0.21 | 17 ± 0.35 | 19 ± 0.23 | 18 ± 0.66
10 | – | – | – | – | Cc1c(NN=C2SC(C(C#N)=Cc3ccccc3)=NC2=O)c(=O)n(-c2ccccc2)n1C [Compound 15a, 2-(5-(2-(1,5-Dimethyl-3-oxo-2-phenyl-2,3-dihydro-1H-pyrazol-4-yl)hydrazono)-4-oxo-4,5-dihydrothiazol-2-yl)-3-phenylacrylonitrile] | – | – | – | 20 ± 0.58 | 16 ± 0.59 | 15 ± 0.77 | 18 ± 0.56 | 16 ± 0.44
11 | – | – | – | – | Cc1c(NN=C2SC(C(C#N)=Cc3ccc(Cl)cc3)=NC2=O)c(=O)n(-c2ccccc2)n1C [Compound 15b, 3-(4-Chlorophenyl)-2-(5-(2-(1,5-dimethyl-3-oxo-2-phenyl-2,3-dihydro-1H-pyrazol-4-yl)hydrazono)-4-oxo-4,5-dihydrothiazol-2-yl)acrylonitrile] | – | – | – | 18 ± 0.76 | 18 ± 0.44 | 16 ± 0.85 | 16 ± 0.25 | 16 ± 0.34
12 | – | – | – | – | Triton X-100 [reference compound] | 95.12% and 95.12 ± 0.721% | – | – | – | – | – | – | –
